From PMC8087158 (Angewandte Chemie (International ed. in English), 2021)

Legend:
[1] = system: P. falciparum strain Pf 3D7; assay: Growth inhibition of erythrocytic stage P. falciparum Pf 3D7; assay type: cell-based, Plasmodium falciparum
Pf20S β5 [2] = assay: Hydrolysis of suc-LLVY-AMC by Pf20S, time courses of inhibition; assay type: biochemical, Plasmodium falciparum
Pf20S β5 [3] = assay: Blocking of MV151 labelling of Pf20S β5; assay type: binding, Plasmodium falciparum; conditions: with or without WLW-VS
[4] = system: P. falciparum lab strain Dd2; assay: Growth inhibition of Pf Dd2; assay type: cell-based, Plasmodium falciparum
Pf Dd2β6A117D = assay: Growth inhibition of proteasome inhibitor-resistant Pf Dd2β6A117D; assay type: cell-based, Plasmodium falciparum; conditions: relative to Dd2
Pf Dd2β5A49S = assay: Growth inhibition of proteasome inhibitor-resistant Pf Dd2β5A49S; assay type: cell-based, Plasmodium falciparum; conditions: relative to Dd2
[5] = system: polyubiquitinated proteins in Pf trophozoites; assay: Accumulation of polyubiquitinated proteins in parasites; assay type: cell-based, Plasmodium falciparum; conditions: 6-hour exposure, 1 μM
[6] = system: Pf strain HB3 (chloroquine-sensitive); assay: Growth inhibition of Pf strain HB3; assay type: cell-based, Plasmodium falciparum
[7] = system: Pf strain 3663 (ART-sensitive); assay: Growth inhibition of Pf strain 3663; assay type: cell-based, Plasmodium falciparum
[8] = system: Pf strain 4884 (ART-resistant); assay: Growth inhibition of Pf strain 4884; assay type: cell-based, Plasmodium falciparum
[9] = system: artemisinin-sensitive Pf Cam3.I^Rev; assay: Modified ring-stage survival assay, combination with DHA, isobologram; assay type: cell-based, Plasmodium falciparum; conditions: 3-h pulse of DHA, continuous TDI-8304 for further 69 h; parasitemia at 72 h
[10] = system: artemisinin-resistant Pf Cam3.I^R539T; assay: as above; assay type: cell-based, Plasmodium falciparum; conditions: 3-h pulse of DHA, continuous TDI-8304 for further 69 h; parasitemia at 72 h
[11] = system: P. falciparum Pf3D7^0087/N9; assay: Humanized mouse model of Pf infection, parasitemia; assay type: in vivo, NOD-SCID IL-2R-null mice transfused with human erythrocytes; conditions: s.c. 100 mg/kg b.i.d., days 3 – 6 post infection

SMILES: O=C(NC1CCCC1)[C@@H]1CCCCOc2cccc(c2)C[C@H](N2CCCC2=O)C(=O)N[C@@H](CCN2CCOCC2)C(=O)N1 [TDI-8304]
- Potency (EC50) against P. falciparum Pf 3D7, in words [1]: highly potent
- EC90 ([1]; strain not given, used as exposure threshold): 29 nM
- t1/2 half-life for the Pf20S:TDI-8304 complex (Pf20S β5 [2]): 14.4 min
- Inhibition modality (Pf20S β5 [2]; induced-fit mechanism): time-dependent inhibition
- Blocking of labelling of Pf20S β5 by MV151 (Pf20S β5 [3]): dose-dependently blocked labelling
- Potency against P. falciparum lab strain Dd2 [4]: potent
- Reduction in potency against Dd2β6A117D (Pf Dd2β6A117D): ~ 18 fold
- EC50 against Dd2β5A49S compared with Dd2 (Pf Dd2β5A49S): comparable
- Accumulation of polyubiquitinated proteins [5]: accumulation of polyubiquitinated proteins
- Activity against Pf strain HB3 [6]: comparable activity
- Activity against Pf strain 3663 [7]: comparable activity
- Activity against Pf strain 4884 [8]: comparable activity
- Interaction with DHA (isobologram) [9]: synergistic killing
- Interaction with DHA (isobologram) [10]: synergistic killing
- Reduction of parasitemia, one mouse [11]: 2 log10
